Results: patent US9521846B2, “Template-fixed peptidomimetics with antimicrobial activity” (priority 2006, dated 2016)
≈ marks a conversion by molar mass, not a printed value. Non-standard residues stand in square brackets, D forms with d. Residues, ends and D or L forms follow the SMILES beside them. Dab = NCC[C@H](N)C(=O)O

Tests used:
P. aeruginosa ATCC 27853 = format: cell-based, Pseudomonas aeruginosa; conditions: ATCC 27853
How it was run: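 Peptide activity was measured by a modified NCCLS broth microdilution method in Mueller-Hinton broth with 0.02% BSA. An inoculum adjusted against a 0.5 McFarland standard to about 10^6 CFU/ml was mixed 1:1 with two-fold serial peptide dilutions.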

HELA cells (Acc57) = assay: Cytotoxicity assay, MTT reduction (LC 50, GI 50); format: cell-based
How it was run: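 Read-out was MTT reduction (A595) after 48 h peptide exposure (12.5–50 μM, triplicates) of HeLa cells plated at 7.0×10^3/well and precultured 24 h. Growth % was normalised to a time-zero reading. Linear trend interpolation gave the concentration at −50% growth (LC50) and at 50% growth (GI50).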

[1] = test system: human red blood cells (hRBC); assay: Hemolysis; format: cell-based; conditions: 100
[2] = Plasma stability, human plasma; format: in vitro ADME
[3] = Plasma stability, rat plasma; format: in vitro ADME

CC[C@H](C)[C@@H]1NC(=O)[C@H](Cc2c[nH]c3ccccc23)NC(=O)[C@H]([C@@H](C)O)NC(=O)[C@@H]2CCCN2C(=O)[C@H]2CCCN2C(=O)[C@H](CCN)NC(=O)[C@H](C)NC(=O)[C@H](CCN)NC(=O)[C@H](CCN)NC(=O)[C@H](Cc2c[nH]c3ccccc23)NC(=O)[C@H](CCN)NC(=O)[C@H](CCN)NC(=O)[C@H](CCCCN)NC(=O)[C@H](CCN)NC1=O [Example 1] (cyclo(TWI[Dab]K[Dab][Dab]W[Dab][Dab]A[Dab][dP]P))
MIC P. aeruginosa ATCC 27853 (P. aeruginosa ATCC 27853): 0.03 µg/mL (≈ 0.019 µM) | Cytotoxicity GI50 Hela cells (HELA cells (Acc57)): 30 µM | Hemolysis at 100 μg/ml [1]: 0.5% | Stability human Plasma t1/2 [2]: 5 h | Stability rat Plasma t1/2 [3]: 5 h
